Results from patent US6869959B1, “Heterocyclic carboxylic acid derivatives” (Institute of Medicinal Molecular Design Inc., priority 1999, dated 2005).
Values belong to the compound of their own block, whether it stands above or below them.

Experiments:
[1] = system: promyelocytic leukemia cell stain HL-60; experiment: Cell differentiation-inducing activity test in HL-60 cell, each compound alone; assay type: cell-based; details: HL-60, NBT reduction
Text: (§1) By using the above compounds, cell differentiation-inducing activity of each compound alone, and effect on cell differentiation-inducing action of a co-existing retinoid were examined. As a comparative and co-existing retinoid, Am80: 4-[(5,6,7,8-tetrahydro-5,5,8,8-tetramethyl-2-naphthalenyl)carbamoyl]benzoic acid (1×10^−10 M) was used. According to the method described in Japanese Patent Unexamined Publication (KOKAI) No.(Sho)61-76440/1986, promyelocytic leukemia cell stain HL-60 was used, and differentiation into granulocytic cells was determined by observing morphological change and measuring ability to reduce nitroblue tetrazolium (NBT). The ratios of differentiated cells shown in the following table were calculated from the ability of reducing NBT.

[2] = system: promyelocytic leukemia cell stain HL-60; experiment: Effect on cell differentiation-inducing action of co-existing retinoid Am80 in HL-60 cell; assay type: cell-based; details: HL-60, NBT reduction
Text: as §1

melting point: 267 °C
Compound: Cc1cc2c(cc1Nc1ncc(C(=O)O)cn1)C(C)(C)CCC2(C)C [Compound 5, 2-[N-(5,6,7,8-Tetrahydro-3,5,5,8,8-pentamethylnaphthalen-2-yl)amino]pyrimidine-5-carboxylic Acid]

melting point: 193 °C
Compound: CCCN(c1ncc(C(=O)O)cn1)c1cc2c(cc1C)C(C)(C)CCC2(C)C [Compound 7, 2-[N-n-Propyl-N-(5,6,7,8-tetrahydro-3,5,5,8,8-pentamethyl-naphthalen-2-yl)amino]pyrimidine-5-carboxylic Acid]

melting point: 123 °C
Compound: Cc1cc2c(cc1N(CC1CC1)c1ncc(C(=O)O)cn1)C(C)(C)CCC2(C)C [Compound 8, 2-[N-Cyclopropylmethyl-N-(5,6,7,8-tetrahydro-3,5,5,8,8-pentamethylnaphthalen-2-yl)amino]pyrimidine-5-carboxylic Acid]

Further lines, the compound ahead of its results:

Compound: CCCN(c1ncc(C(=O)O)cn1)c1cc(C(C)(C)C)ccc1C(C)(C)C [Compound 11, 2-[N-(3,6-Di-tert-butylphenyl)-N-n-propylamino]pyrimidine-5-carboxylic Acid]
melting point: 219 °C

Compound: CCCN(c1ccc2c(c1)C(C)(C)CCC2(C)C)c1ncc(C(=O)O)cn1 [Compound 3]
Ratio of differentiated cells by each compound alone (%) ([1]; compound concentration 10^−6 M): 16%
Ratio of differentiated cells by each compound alone (%) ([1]; compound concentration 10^−7 M): 14%
Ratio of differentiated cells by each compound alone (%) ([1]; compound concentration 10^−8 M): 9%
Ratio of differentiated cells by each compound co-existing with 1 × 10^−10 M Am80 (%) ([2]; compound concentration 10^−7 M + 1 × 10^−10 M Am80): 89%
Ratio of differentiated cells by each compound co-existing with 1 × 10^−10 M Am80 (%) ([2]; compound concentration 10^−8 M + 1 × 10^−10 M Am80): 87%
Ratio of differentiated cells by each compound co-existing with 1 × 10^−10 M Am80 (%) ([2]; compound concentration 10^−9 M + 1 × 10^−10 M Am80): 90%
Ratio of differentiated cells by each compound co-existing with 1 × 10^−10 M Am80 (%) ([2]; compound concentration 10^−10 M + 1 × 10^−10 M Am80): 60%
Ratio of differentiated cells by each compound co-existing with 1 × 10^−10 M Am80 (%) ([2]; compound concentration 10^−11 M + 1 × 10^−10 M Am80): 27%

Compound: CN(c1cc(C(C)(C)C)cc(C(C)(C)C)c1)c1ncc(C(=O)O)cn1 [Compound 9, 2-[N-(3,5-Di-tert-butylphenyl)-N-methylamino] pyrimidine-5-carboxylic Acid]
melting point: 261 to 263 °C

Compound: CC(C)(C)c1cc(N(CC2CC2)c2ncc(C(=O)O)cn2)cc(C(C)(C)C)c1 [Compound 12, 2-[N-Cyclopropylmethyl-N-(3,5-di-tert-butylphenyl)-amino]pyrimidine5-carboxylic Acid]
melting point: 194 °C
